# In patent US20080318938A1, “METHODS FOR TREATING ABERRANT CELL PROLIFERATION DISORDERS” (priority 2007, published 2008):
# Columns and labels:
# Experiment in all cases: Inhibition of cell proliferation (MTT)
# Format in all cases: cell-based
# A3 = details: Homo sapiens; A3, Leukemia; 48 hours
# Protocol: (§1) Inhibition of cell proliferation is determined in human tumor cell lines. Innoculation density and doubling times for specific cell lines are listed at World Wide Web URL “dtp.nci.nih.gov/docs/misc/common_files/cell_list.html.”
# (§2) • 1. Plate adherent cells the day before starting the experiment in 180 μl growth media (see list hereafter). • 2. Day of experiment, count and plate suspension cells in 180 μl growth media (see list on next page). • 3. Make 10× Compound, vehicle, and chemotherapeutic cocktail • a. Compound (1× to 10×) • i. 10 μM Compound to 100 μM • ii. 3 μM Compound to 30 μM • iii. 1 μM Compound to 10 μM • iv. 0.3 μM Compound to 3 μM • v. 0.1 μM Compound to 1 μM • b. Vehicle • i. PBS, equivalent to the volume used for 10 μM Compound (1× is ˜0.06% PBS) • c. Chemotherapeutic cocktail (1× to 10×): • i. 1 μM Velcade to 10 μM • ii. 100 μM Etoposide to 1 mM • iii. 20 μM Taxol to 200 μM • 4. Add 20 μl of the 10× compound/vehicle/chemotherapeutic cocktail to cells. • 5. Incubate at 37° C., 5% CO2 for 48 hours. • 6. Aspirate media. For suspension cells, spin plate at 1500 RPM for 10 minutes. Use a multichannel pipettor to slowly remove media. • 7. Add 200 μl of Thiazolyl Blue Tetrazolium Bromide (MTT) to each well: 0.863 mg/ml MTT in growth media.
# (§3) Proliferation of several cancer cells was inhibited by compound TA1-1B (which is a particular mixture of the isomers represented by TA1-1A), as shown in the following table (Table 1). The value EC50 is the amount of Compound TA1-1B that results in 50% inhibition of proliferation of the indicated cell type.
# BT-549 = details: Homo sapiens; BT-549, Breast; 48 hours
# Protocol: as §1, §2, §3
# COLO 205 = details: Homo sapiens; COLO 205, Colon; 48 hours
# Protocol: as §1, §2, §3
# DOHH2 = details: Homo sapiens, DOHH-2; DOHH2, Lymphoma; 48 hours
# Protocol: as §1, §2, §3
# EKVX = details: Homo sapiens, Non Small Cell Lung, 48 hours
# Protocol: as §1, §2, §3
# HCC-2998 = details: Homo sapiens; HCC-2998, Colon; 48 hours
# Protocol: as §1, §2, §3
# HH = details: Homo sapiens, Lymphoma, 48 hours
# Protocol: as §1, §2, §3
# HL-60(TB) = details: Homo sapiens, Leukemia, 48 hours
# Protocol: as §1, §2, §3
# HS 578T = details: Homo sapiens, Breast, 48 hours
# Protocol: as §1, §2, §3
# Hs602 = details: Homo sapiens; Hs602, Lymphoma; 48 hours
# Protocol: as §1, §2, §3
# HuT102 = details: Homo sapiens, HuT-102; HuT102, Lymphoma; 48 hours
# Protocol: as §1, §2, §3
# Hut78 = details: Homo sapiens; Hut78, Lymphoma; 48 hours
# Protocol: as §1, §2, §3
# I 9.2 = details: Homo sapiens; I 9.2, Leukemia; 48 hours
# Protocol: as §1, §2, §3
# IGROV1 = details: Homo sapiens, IGROV-1; IGROV1, Ovarian; 48 hours
# Protocol: as §1, §2, §3
# Jurkat = details: Homo sapiens, Leukemia, 48 hours
# Protocol: as §1, §2, §3
# KG-1 = details: Homo sapiens; KG-1, Leukemia; 48 hours
# Protocol: as §1, §2, §3
# MV-4-11 = details: Homo sapiens, MV4-11; MV-4-11, Leukemia; 48 hours
# Protocol: as §1, §2, §3
# NC37 = details: Homo sapiens, NC-37; NC37, Lymphoma; 48 hours
# Protocol: as §1, §2, §3
# NCI-H460 = details: Homo sapiens; NCI-H460, Non Small Cell Lung; 48 hours
# Protocol: as §1, §2, §3
# NCI-H522 = details: Homo sapiens; NCI-H522, Non Small Cell Lung; 48 hours
# Protocol: as §1, §2, §3
# NK92MI = details: Homo sapiens, Lymphoma, 48 hours
# Protocol: as §1, §2, §3
# OVCAR-4 = details: Homo sapiens; OVCAR-4, Ovarian; 48 hours
# Protocol: as §1, §2, §3
# P116 = details: Homo sapiens; P116, Leukemia; 48 hours
# Protocol: as §1, §2, §3
# RPMI-8226 = details: Homo sapiens; RPMI-8226, Leukemia; 48 hours
# Protocol: as §1, §2, §3
# Raji = details: Homo sapiens, Lymphoma, 48 hours
# Protocol: as §1, §2, §3
# SF-539 = details: Homo sapiens; SF-539, CNS; 48 hours
# Protocol: as §1, §2, §3
# SUDHL4 = details: Homo sapiens, SU-DHL-4; SUDHL4, Lymphoma; 48 hours
# Protocol: as §1, §2, §3
# TK-10 = details: Homo sapiens; TK-10, Renal; 48 hours
# Protocol: as §1, §2, §3
# U251 = details: Homo sapiens, U-251; U251, CNS; 48 hours
# Protocol: as §1, §2, §3
# U266B1 = details: Homo sapiens; U266B1, Lymphoma; 48 hours
# Protocol: as §1, §2, §3
# UACC-257 = details: Homo sapiens; UACC-257, Melanoma; 48 hours
# Protocol: as §1, §2, §3
compound,measurement,setting,value
CN1CCC[C@H]1CCNC(=O)c1cn2c3c(c(N4CCC(c5cnccn5)C4)c(F)cc3c1=O)Oc1cc3ccccc3cc1-2 (stereo partly shown) [TA1-1B],EC50,A3,3630 nM
same,EC50,BT-549,1800 nM
same,EC50,COLO 205,707 nM
same,EC50,DOHH2,1560 nM
same,EC50,EKVX,5670 nM
same,EC50,HCC-2998,2540 nM
same,EC50,HH,4040 nM
same,EC50,HL-60(TB),1650 nM
same,EC50,HS 578T,1940 nM
same,EC50,Hs602,1280 nM
same,EC50,HuT102,1050 nM
same,EC50,Hut78,3300 nM
same,EC50,I 9.2,3690 nM
same,EC50,IGROV1,4440 nM
same,EC50,Jurkat,1210 nM
same,EC50,KG-1,3970 nM
same,EC50,MV-4-11,5810 nM
same,EC50,NC37,1260 nM
same,EC50,NCI-H460,4010 nM
same,EC50,NCI-H522,1500 nM
same,EC50,NK92MI,1300 nM
same,EC50,OVCAR-4,2960 nM
same,EC50,P116,1230 nM
same,EC50,RPMI-8226,1370 nM
same,EC50,Raji,1880 nM
same,EC50,SF-539,1110 nM
same,EC50,SUDHL4,1340 nM
same,EC50,TK-10,3330 nM
same,EC50,U251,2680 nM
same,EC50,U266B1,1620 nM
same,EC50,UACC-257,5100 nM
